Like-named read-outs stand apart in the source and are kept apart here.
Legend:
[1] = biological target: central benzodiazepine receptors; experiment: Affinity to central benzodiazepine receptors: inhibition of binding of tritiated flumazenil in rat cortex; conditions: in vitro
Method: The affinity of compounds of general formula I to the central benzodiazepine receptors was established in vitro according to the methods described in Nature 294, 763-765 (1981) and J. Neurochemistry 37, 714-722 (1981). According to these methods, the inhibition of the binding of tritiated flumazenil to the specific benzodiazepine receptors in the cortex of rats by the respective test substances is determined. The IC50 ("50% inhibiting concentration") denotes that concentration of the respective test substance which brings about a 50 per cent inhibition of the specific binding of tritiated flumazenil to the specific benzodiazepine receptors in the cortex of rats.

[2] = Rotating rod test (sedative/muscle relaxant properties), i.v.; format: in vivo; conditions: Mus musculus, iv, mice
Method: The sedative/muscle relaxant properties of the compounds of formula I in accordance with the invention can be determined, for example, in the rotating rod test. Mice weighing 19-21 g are used for this test. They have free access to feed and drinking water up to 1 hour before the beginning of the test. They are brought into the test laboratory at least 30 minutes before the test. In the rotating rod test the animals are placed on a horizontally arranged, smooth metal rod having a diameter of 3 cm, which is rotated at 2 revolutions per minute. Initially, the animals are given the opportunity of familiarizing themselves with the test situation for 30 seconds. Subsequently, those animals which succeed in remaining on the rod for at least 1 minute are selected. These animals are then given the test preparations intravenously in different dosages. At various points in time it is then determined whether the animals are able to remain on the rod for a minimum period (minimum period: 10 seconds; from 5 minutes after administration: 1 minute.). That dosages at which 50% of the animals are capable of remaining on the rod (ED 50) is determined.

[3] = Fatalities after i.v. administration to mice; format: in vivo; conditions: 32 and 100 mg/kg i.v.
[4] = Fatalities after i.v. administration to rats; format: in vivo; conditions: 32 and 100 mg/kg i.v.
[5] = 15 s, 15 sec after administration, read-out: Rotating rod test, ED50, 15 sec after administration
[6] = 0.5 min, 30 sec after administration, read-out: Rotating rod test, ED50, 30 sec after administration
[7] = 1 min, 60 sec after administration, read-out: Rotating rod test, ED50, 60 sec after administration
[8] = 2 min, 2 min after administration, read-out: Rotating rod test, ED50, 2 min after administration
[9] = 5 min, 5 min after administration, read-out: Rotating rod test, ED50, 5 min after administration
[10] = 0.25 h, 15 min after administration, read-out: Rotating rod test, ED50, 15 min after administration
[11] = 0.5 h, 30 min after administration, read-out: Rotating rod test, ED50, 30 min after administration
[12] = 1 h, 60 min after administration, read-out: Rotating rod test, ED50, 60 min after administration

SMILES | IC50 [1] | ED50 [2, 5] | ED50 [2, 6] | ED50 [2, 7] | ED50 [2, 8] | ED50 [2, 9] | ED50 [2, 10] | ED50 [2, 11] | ED50 [2, 12] | fatalities [3] | fatalities [4]
O=C1c2c(Cl)cccc2-n2cnc(-c3noc(CN4CCCCC4)n3)c2[C@@H]2CCN12 [I, (S)-8-chloro-1-[5-(piperidin-1-yl)methyl-1,2,4-oxadiazol-3-yl]-12,12a-dihydro-9H,11H-azeto[2,1-c]imidazo[1,5-a][1,4]benzodiazepin-9-one] | 4.4 nM | 0.1 mg/kg | 0.7 mg/kg | 0.7 mg/kg | 1 mg/kg | 1.1 mg/kg | 3.1 mg/kg | ≥ 10 mg/kg | > 10 mg/kg | – | –
CC(C)N(Cc1nc(-c2ncn3c2CN(C)C(=O)c2ccccc2-3)no1)C(C)C [O, 3-(5-diisopropylaminomethyl-1,2,4-oxadiazol-3-yl)-5-methyl-5,6-dihydro-4H-imidazo[1,5-a][1,4]benzodiazepin-6-one] | 6.4 nM | 0.3 mg/kg | 0.5 mg/kg | 0.7 mg/kg | 1 mg/kg | 3 mg/kg | > 10 mg/kg | > 10 mg/kg | > 10 mg/kg | – | –
CCCN(CCC)Cc1nc(-c2ncn3c2CN(C)C(=O)c2ccccc2-3)no1 [F, 3-(5-dipropylaminomethyl-1,2,4-oxadiazol-3-yl)-5-methyl-5,6-dihydro-4H-imidazo[1,5-a][1,4]benzodiazepin-6-one] | 6.9 nM | 0.2 mg/kg | 0.4 mg/kg | 0.5 mg/kg | 0.9 mg/kg | ≥ 10 mg/kg | > 10 mg/kg | > 10 mg/kg | > 10 mg/kg | – | –
CCCN(CCC)Cc1nc(-c2ncn3c2CN(C)C(=O)c2cc(F)ccc2-3)no1 [D, 3-(5-dipropylaminomethyl-1,2,4-oxadiazol-3-yl)-8-fluoro-5-methyl-5,6-dihydro-4H-imidazo[1,5-a][1,4]benzodiazepin-6-one] | 3.3 nM | 0.2 mg/kg | 0.2 mg/kg | 0.3 mg/kg | 0.3 mg/kg | 0.8 mg/kg | 2.6 mg/kg | > 10 mg/kg | > 10 mg/kg | without fatalities occurring | without fatalities occurring
CCCN(CCC)Cc1nnc(-c2ncn3c2CN(C)C(=O)c2cc(F)ccc2-3)o1 [G, 3-(5-dipropylaminomethyl-1,3,4-oxadiazol-2-yl)-8-fluoro-5-methyl-5,6-dihydro-4H-imidazo[1,5-c][1,4]benzodiazepin-6-one] | 18.3 nM | 0.3 mg/kg | 0.3 mg/kg | 0.7 mg/kg | 1.1 mg/kg | 3.6 mg/kg | ≥ 10 mg/kg | > 10 mg/kg | > 10 mg/kg | – | –
CN1Cc2c(-c3noc(CN4CCCCC4)n3)ncn2-c2ccc(F)cc2C1=O [C, 8-fluoro-5-methyl-3-[5-(piperidin-1-ylmethyl)-1,2,4-oxadiazol-3-yl]-5,6-dihydro-4H-imidazo[1,5-a][1,4]benzodiazepin-6-one] | 50 nM | 0.8 mg/kg | 0.8 mg/kg | 1.2 mg/kg | 1.6 mg/kg | 3.2 mg/kg | ≥ 10 mg/kg | > 10 mg/kg | > 10 mg/kg | – | –
CCCN(CCC)Cc1nc(-c2ncn3c2[C@@H]2CCN2C(=O)c2c(Cl)cccc2-3)no1 [A, (S)-8-chloro-1-(5-dipropylaminomethyl-1,2,4-oxadiazol-3-yl)-12,12a-dihydro-9H,11H-azeto[2,1-c]imidazo[1,5-a][1,4]benzodiazepin-9-one] | 13 nM | 0.3 mg/kg | 0.3 mg/kg | 0.7 mg/kg | 0.8 mg/kg | 1.4 mg/kg | 2.1 mg/kg | 7.3 mg/kg | > 10 mg/kg | without fatalities occurring | without fatalities occurring
CCN(CC)Cc1nc(-c2ncn3c2CN(C)C(=O)c2cc(F)ccc2-3)no1 [H, 3-(5-diethylaminomethyl-1,2,4-oxadiazol-3-yl)-8-fluoro-5-methyl-5,6-dihydro-4H-imidazo[1,5-a][1,4]benzodiazepin-6-one] | 25 nM | 0.1 mg/kg | 0.2 mg/kg | 0.4 mg/kg | 0.7 mg/kg | 1.2 mg/kg | 4.3 mg/kg | 5.1 mg/kg | > 10 mg/kg | – | –
